Among the data in PubChem BioAssay (NCI) are GI50 and TGI values, retold here.

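Briefly, cells in 96-well plates were exposed to five compound concentrations for 48 h, and endpoints were estimated by linear interpolation. GI50 is the concentration that inhibits growth by half. Definition used: TGI = concentration required for complete inhibition of growth.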

What all share (assay): NCI tumour cell line growth inhibition, 48 h
Test [1] has as its system HL-60(TB) leukemia.
For test [2], the system named is MALME-3M melanoma.
Test [3] has as its system LOX IMVI melanoma.
In test [4] the test system is CCRF-CEM leukemia.
Test [5] relates to U251 CNS.
In test [6] the test system is SNB-19 CNS.
Test [7] relates to OVCAR-5 ovarian.
For test [8], the system named is CAKI-1 renal.
Test [9] deals with SK-MEL-2 melanoma.
For test [10], the system named is SNB-75 CNS.

In the case of `COc1ccc2c(c1)nc(N)c1c3cccnc3cn21`, the GI50 in test [1] was 0.0313 µM; in test [2] it was 0.153 µM; in test [3], 0.0713 µM; in test [4], 0.039 µM; in test [5] it was 0.0474 µM; in test [6], 0.212 µM. Further, the GI50 in test [7] is 0.438 µM; in test [8], 0.0407 µM; in test [9], 0.843 µM; in [10] it was 0.06 µM. The TGI in test [1] was 18.3 µM; in [2] it was 25.7 µM; in test [3], 18.7 µM; in [4], over 100 µM; in test [5], 14.6 µM; in [6] it was over 100 µM. The TGI in test [7] is over 100 µM; in test [8] it was 16.3 µM; in [9] it was 24.2 µM; in test [10] it was over 100 µM.

For the molecule `Fc1ccc(Nc2nc(NCCNc3ccnc4cc(Cl)ccc34)nc(N3CCOCC3)n2)cc1`, the GI50 is 1.8 µM in [1]; 2.76 µM in [2]; 2.95 µM in test [3]; 0.457 µM in test [4]; 4.72 µM in [5]; 12.4 µM in [6]. Also, the GI50 was 17.6 µM in [7], 5.59 µM in [8], 2.2 µM in [9] and 3.13 µM in test [10]. Besides, the TGI in test [1] stood at 4.89 µM; in test [2], 4.52 µM; in test [3], 10.1 µM; in test [4], 16.3 µM; in test [5] it was 17.5 µM; in test [6], 25.9 µM. Moreover, the TGI in [7] is 32.1 µM; in test [8], 19.5 µM; in test [9], 4.51 µM; in test [10], 16.2 µM.

With `CC(=O)Oc1ccccc1C(=O)C1c2cccc(O)c2C(=O)c2c(O)cccc21`, the TGI in [1] was 0.727 µM; in test [2], 4.01 µM; in [3] it was 4.19 µM; in test [4], 2.77 µM; in [5], 1.99 µM; in [6], 24.3 µM. The TGI in [7] was determined as 6.22 µM; in test [8] it was 5.39 µM; in [9] it was 2.9 µM; in test [10], 4.54 µM.

Take `COC(=O)C(Cc1nc2ccc(Cl)cc2[nH]c1=O)C(=O)C(=O)Nc1ccccc1[N+](=O)[O-]` (stereo not given): the TGI in [1], in test [2], in [3], in test [4], in test [5] and in test [6] was over 100 µM each time. Moreover, the TGI in test [7], in [8], in test [9] and in [10] was over 100 µM in each case.

Consider `Oc1cc(Cl)ccc1Oc1ccc(Cl)cc1Cl`, for which the GI50 in test [1] is 3.31 µM; in test [2] it was 2.37 µM; in test [3], 1.87 µM; in test [4] it was 3.36 µM; in [5], 2.73 µM; in test [6], 3.66 µM. The GI50 in test [7] is 3.37 µM; in test [8], 4.84 µM; in [9] it was 2.41 µM; in test [10], 2.31 µM. In addition, the TGI was found to be 8.31 µM in test [1]; 6.83 µM in test [2]; 3.86 µM in test [3]; 10.6 µM in test [4]; 10.1 µM in test [5]; 13.7 µM in [6]. For the same molecule, the TGI in test [7] is 12.1 µM; in test [8], 17.8 µM; in test [9], 5.01 µM; in test [10], 8.71 µM.

As to `CCOC(=O)c1c(C)n(Cc2ccc(Cl)cc2Cl)c2c1cc1oc(=O)c(=O)n3c(Cc4ccccc4)nc2c13`, the GI50 in [1] is 2.09 µM; in test [2], 5.3 µM; in test [3], 1.83 µM; in test [4], 1.31 µM; in test [5], 2.45 µM; in test [6], 6.12 µM. Moreover, the GI50 in test [7] is 2.73 µM; in test [8] it was 2.69 µM; in [9], 11.8 µM; in [10], 10.1 µM. Besides, the TGI turned out to be 6.09 µM in test [1]; 12.9 µM in test [2]; 3.38 µM in [3]; 3.19 µM in test [4]; 6.5 µM in test [5]; 20.9 µM in test [6]. Further, the TGI in test [7] worked out at 6.16 µM; in test [8], 9.36 µM; in test [9], 32.6 µM; in test [10], 27.7 µM.

For the molecule `O=c1oc2ccc(Cl)cc2c(=O)n1-c1ccc(I)cc1F`, the GI50 in test [1] was 0.286 µM; in test [2] it was 0.158 µM; in [3], 0.248 µM; in test [4], 0.702 µM; in test [5], 0.262 µM; in test [6], 0.206 µM. The GI50 is 3.58 µM in [7], 0.172 µM in test [8], 0.116 µM in test [9] and 0.2 µM in test [10]. The TGI in test [1] was 1.36 µM; in test [2], 0.813 µM; in test [3], 1.69 µM; in test [4], 5.14 µM; in test [5] it was over 35.6 µM; in test [6] it was over 100 µM. In addition, the TGI in test [7] was over 100 µM; in test [8], 1.02 µM; in test [9] it was 0.945 µM; in test [10], 1.36 µM.

Take `CN(C)c1ccc(N=Nc2c([O-])ccc3ccccc23)cc1.[C-]#[O+].[C-]#[O+].[Ir]`: the GI50 in [1] was 10.6 µM; in test [2] it was 15.7 µM; in [3] it was 18.6 µM; in test [4] it was 8.08 µM; in test [5] it was 35.1 µM; in [6] it was over 100 µM. Besides, the GI50 in test [7] was over 42.1 µM; in test [8] it was 16.2 µM; in [9] it was 23.8 µM; in [10] it was 54.8 µM. Also, the TGI in test [1] is over 46.6 µM; in test [2], 33.4 µM; in test [3], 40.5 µM; in test [4] it was 39.9 µM; in [5], over 69.3 µM; in test [6], over 100 µM. In addition, the TGI in test [7] was over 58.7 µM; in test [8] it was 33.5 µM; in test [9], 48.2 µM; in test [10], over 100 µM.
